One data set concerns Medulloblastome. The data set is described as follows: Effect on medulloblastomas.
In another data set the test system is Maus. Briefly: Pharmacological observation in the mouse (central, vegetative and toxic effects, acute toxicity). Format: in vivo. The text has this: Pharmakologische Untersuchungen an der Maus
Die Verbindungen wurden an der Maus auf zentrale, vegetative und toxische Effekte geprüft. Durch systemische Einzelbeobachtungen sind neben der akuten Toxizität (orienberende letale Dosis, oLD) zentrale und vegetative Wirkungen der Testsubstanzen, insbesondere Effekte auf die Motorik und das Reaktionsvermögen, die Haut- und Rektaltemperatur sowie auf die Pupillenmotorik erfasst worden. Die getesteten Dosierungen betrugen 5 •10^-4, 1 • 10^-3 und 5 • 10^-3 mol/kg Körpergewicht Letale Wirkungen konnten bei keiner der Verbindungen beobachtet werden. Die oLD lag für Di(tetradecanoyloxy)dimethylsilan und Di(octadecanoyloxy)dimethylsilan unter 1 • 10^-3 mol/kg Körpergewicht für alle übrigen Verbindungen unter 5 • 10^-3 mollkg Körpergewicht.

The subject of data set [1] is BxPC3 (pankreatisches Adenokarzinom). Briefly: MTT test, triplicate, two-fold dilutions. The class given is cell-based. The note with it: Homo sapiens. The protocol:
(§1) Die Silan wurden in Ethanol aufgelöst und in Zellkulturmedien in Konzentrationen von bis zu 500 µg/ml resuspendiert. Es wurden MTT Tests in dreifacher Ausführung durchgeführt, für welche doppelte Lösungen (7 Schritte) und colo205 (Kofon-Karzinom), BxPC3 (pankreatisches Adenokarzinom) sowie T47D (Brustkrebs) benutzt wurden.
In general terms: Tetrazolium assays rely on reduction of a dye to a coloured formazan, in cell work by metabolically active cells.

The next data set concerns T47D (Brustkrebs). Briefly: MTT test, triplicate, two-fold dilutions. Format: cell-based. The settings on record: Homo sapiens, T47D, read-out: IC50 T47D. As for the experimental part: as §1
The subject of the next data set is colo205 (Kofon-Karzinom). Briefly: MTT test, triplicate, two-fold dilutions. Format: cell-based. The settings on record: Homo sapiens. The protocol: as §1
A further data set relates to A431 Epidermalkarzinom. The data set is described as follows: MTT assay / EZ4U test, 4 days. The class given is cell-based. The settings on record: Homo sapiens. As for the experimental part:
(§2) Die Silane 1, 5, 9, 10, 11, 13, 15, 16 wurden in Ethanol gelöst und in MTT Assays in einer anfänglichen Konzentration von 200 µg/ml (5 Lösungsschritte 200 - 12.5 µg/ml) verwendet. Die Platten wurde für eine Dauer.von 4 Tagen inkubiert und die Entwicklungsfähigkeit mithilfe des EZ4U Test bestimmt. Die IC50 Werte wurden ausgehend von Dosierungs-Reaktions-Linien berechnet Zelllinien: Colo 205 and HT29 - Kolonkarzinom; BxPC3 and MIAPaCa2 - Pankreaskrebs; CRO2B - karzinoid, A431 Epidermalkarzinom; normale Zellen: WI38 - humane embryonale Fibroblasten; NIH3T3 - mausartige Fibroblasten; IEC6 - mausartige Enterozyten.

The next data set concerns BxPC3 - Pankreaskrebs. The data set is described as follows: MTT assay / EZ4U test, 4 days. Format: cell-based. The settings on record: Homo sapiens. As for the experimental part: as §2
In a further data set the test system is CRO2B - karzinoid. The data set is described as follows: MTT assay / EZ4U test, 4 days. The class given is cell-based. The note with it: read-out: IC50 CR02B. As for the experimental part: as §2
Another data set deals with HT29 - Kolonkarzinom. Briefly: MTT assay / EZ4U test, 4 days. The class given is cell-based. The settings on record: Homo sapiens. The protocol:
as §2

Data set [2] relates to IEC6 - mausartige Enterozyten. Briefly: MTT assay / EZ4U test, 4 days. The class given is cell-based. The settings on record: Rattus norvegicus. As for the experimental part: as §2
In a further data set the test system is MIAPaCa2 - Pankreaskrebs. Briefly: MTT assay / EZ4U test, 4 days. The note with it: Homo sapiens. Format: cell-based. As for the experimental part: as §2
The test system of data set [3] is NIH3T3 - mausartige Fibroblasten. The data set is described as follows: MTT assay / EZ4U test, 4 days. The class given is cell-based. The settings on record: Mus musculus. The protocol:
as §2

Data set [4] deals with WI38 - humane embryonale Fibroblasten. Briefly: MTT assay / EZ4U test, 4 days. The class given is cell-based. The note with it: Homo sapiens. As for the experimental part: as §2
For a further data set, the system named is Krebszellen. The data set is described as follows: Mean IC50 over all cancer cell lines. Format: cell-based. The settings on record: read-out: IC50 Krebszellen (Durchschnitt ± SD). As for the experimental part:
as §2
(§3) Mittelwerte-IC50 für alle Krebs- oder normalen Zelllinien: […]

In a further data set the test system is Normale Zellen. The data set is described as follows: Mean IC50 over all normal cell lines. The note with it: read-out: IC50 Normale Zellen (Durchschnitt ± SD). The class given is cell-based. The protocol: as §2, §3
The next data set concerns Colo205 Kolonkarzinom. Briefly: subG1 apoptotic fraction, propidium iodide, flow cytometry. The class given is cell-based. The note with it: 50 µg/ml, 4 Tage. As for the experimental part: (§4) Die Zellen (IEC6 mausartige Enterozyten; Panc1 Pankreaskrebszellen; Colo205 Kolonkarzinom) wurden mit 50 µg/ml Silanen inkubiert und nach 4-tägiger Aussetzung auf DNA eingefärbt (Propidiumiodid). Die SubG1 Zellteilung wurde mittels Durchflusscytometrie bestimmt.

For data set [5], the system named is IEC6 mausartige Enterozyten. The data set is described as above. The class given is cell-based. The settings on record: 50 µg/ml, 4 Tage. The protocol:
as §4

Data set [6] has as its system Panc1 Pankreaskrebszellen. The description is as above. Format: cell-based. The note with it: 50 µg/ml, 4 Tage. The protocol:
as §4

Another data set has as its system Osteosarkome. Briefly: Effect on osteosarcomas.
The next data set concerns Colo 205 - Kolonkarzinom. Briefly: MTT assay / EZ4U test, 4 days. The class given is cell-based. The note with it: Homo sapiens, COLO 205, read-out: IC50 Colo205. The protocol: as §2

We go through four compounds from patent publication EP1948196B1, “USE OF TETRAORGANOSILICON COMPOUNDS” (Salama, Zoser B., priority 2005, dated 2007).

≈ marks a conversion by molar mass, not a printed value. Read-outs that look alike come from different tables or passages of the source. Numbered stars: 1 amine (or outer) side, 2 acyl side, 3 side chain; on linkers, the order of the positions; unused ones are H or OH. Bridge positions count the residues as written; N and C are the ends. Peptide text beside a SMILES is read from it. I, II: the chains in the order shown. OSiEt2O = CC[Si](CC)(O[*:1])O[*:2]

One may read the IC50 as the concentration that gives 50% inhibition.

On to `CC[Si](CC)(OC(=O)CNC(=O)CNC(=O)CNC(=O)CN)OC(=O)CNC(=O)CNC(=O)CNC(=O)CN` [Diethyl bis(tetraglycyl)silylester] (I: H-GGGG / II: H-GGGG; linker I:C-II:C via OSiEt2O), for which the “Wirkung gegen Medulloblastome” value in the data set on Medulloblastome was “zeigen eine Wirkung”.
For `CCCCCCCCCCCCCCCC(=O)O[Si](C)(C)OC(=O)CCCCCCCCCCCCCCC` [Si16, Di (hexadecanoyloxy) dimethylsilan], the “zentrale, vegetative und toxische Effekte (Verhaltensänderungen)” value in the data set on Maus (1•10^-3 mol/kg) is “keine Verhaltensänderungen”; in the data set on Maus (5•10^-3 mol/kg) it was “Ataxie, Piloerektion, Grifistärkesenkung”; with Maus (5•10^-4 mol/kg), “keine Verhaltensänderungen”. Moreover, the IC50 came out at 45 µg/mL (≈ 79.1 µM) in data set [1] (BXPC-3, up to 500 µg/ml, read-out: IC50 BxPC3); 15 µg/mL (≈ 26.4 µM) in the data set on T47D (Brustkrebs) (up to 500 µg/ml); 500 µg/mL (≈ 879 µM) with colo205 (Kofon-Karzinom) (COLO 205, up to 500 µg/ml, read-out: IC50 Colo205); 34.5 µg/mL (≈ 60.6 µM) in the data set with A431 Epidermalkarzinom (A-431, 200 - 12.5 µg/ml, 4 Tage, read-out: IC50 A431); 12.5 µg/mL (≈ 22 µM) in the data set with BxPC3 - Pankreaskrebs (BXPC-3, 200 - 12.5 µg/ml, 4 Tage, read-out: IC50 BxPC3); 31.5 µg/mL (≈ 55.4 µM) with CRO2B - karzinoid (200 - 12.5 µg/ml, 4 Tage). The concentration for half-maximal inhibition (IC50) with HT29 - Kolonkarzinom (HT-29, 200 - 12.5 µg/ml, 4 Tage, read-out: IC50 HT29) was 34.4 µg/mL (≈ 60.5 µM); in [2] (IEC-6, 200 - 12.5 µg/ml, 4 Tage, read-out: IC50 IEC6), 17.2 µg/mL (≈ 30.2 µM); in the data set on MIAPaCa2 - Pankreaskrebs (MIA PaCa-2, 200 - 12.5 µg/ml, 4 Tage, read-out: IC50 MlAPaCa2), 400 µg/mL (≈ 703 µM); in [3] (NIH3T3, 200 - 12.5 µg/ml, 4 Tage, read-out: IC50 NIH3T3) it was 42.5 µg/mL (≈ 74.7 µM); in [4] (WI-38, 200 - 12.5 µg/ml, 4 Tage, read-out: IC50 WI38), 36 µg/mL (≈ 63.3 µM); in the data set on Krebszellen (mean over cancer cell lines) it was 28.2 µg/mL (≈ 49.6 µM). Further, in the data set on Normale Zellen (mean over normal cell lines), the half-maximal inhibitory concentration (IC50) was found to be 31.9 µg/mL (≈ 56.1 µM). The “subG1 apoptotische Zellteilung Colo205” value in the data set with Colo205 Kolonkarzinom is 3,55 ± 0,07. The “subG1 apoptotische Zellteilung IEC6” value in [5] is reported as 2,45±0,21. Also, the “subG1 apoptotische Zellteilung Panc1” value in [6] is recorded as 22,2 ± 1,6. In addition, the “Wirkung auf Osteosarkome” value in the data set with Osteosarkome was “zeigen eine Wirkung”.
Regarding `C[Si](C)(OC(=O)CNC(=O)CNC(=O)CNC(=O)CNC(=O)CNC(=O)CNC(=O)CNC(=O)CNC(=O)CN)OC(=O)CNC(=O)CNC(=O)CNC(=O)CNC(=O)CNC(=O)CNC(=O)CNC(=O)CNC(=O)CN` [Dimethyl bis(nonaglycyl)silylester], in the data set on Medulloblastome, the “Wirkung gegen Medulloblastome” value is “zeigen eine Wirkung”.
Turning to `CCCCCCCCCCCCCCCCC(=O)O[Si](CC)(CC)OC(=O)CCCCCCCCCCCCCCCC` [Si1, Di (heptadecanoyloxy) diethylsilan], the IC50 in data set [1] (BXPC-3, read-out: IC50 BxPC3) was 15 µg/mL (≈ 24 µM); in the data set on T47D (Brustkrebs), 15 µg/mL (≈ 24 µM); in the data set on colo205 (Kofon-Karzinom) (COLO 205, read-out: IC50 Colo205), 125 µg/mL (≈ 200 µM); in the data set with A431 Epidermalkarzinom (A-431, read-out: IC50 A431) it was 31.8 µg/mL (≈ 50.9 µM); with BxPC3 - Pankreaskrebs (BXPC-3, read-out: IC50 BxPC3), 37 µg/mL (≈ 59.2 µM); with CRO2B - karzinoid it was 22.8 µg/mL (≈ 36.5 µM). Also, the half-maximal inhibitory concentration (IC50) came out at 37 µg/mL (≈ 59.2 µM) with Colo 205 - Kolonkarzinom; 41.5 µg/mL (≈ 66.4 µM) in the data set with HT29 - Kolonkarzinom (HT-29, read-out: IC50 HT29); 28.1 µg/mL (≈ 45 µM) in [2] (IEC-6, read-out: IC50 IEC6); 50 µg/mL (≈ 80 µM) in the data set on MIAPaCa2 - Pankreaskrebs (MIA PaCa-2, read-out: IC50 MlAPaCa2); 36.2 µg/mL (≈ 57.9 µM) in [3] (NIH3T3, read-out: IC50 NIH3T3); 26.2 µg/mL (≈ 41.9 µM) in [4] (WI-38, read-out: IC50 WI38). Besides, the IC50 in the data set with Krebszellen is 33.2 µg/mL (≈ 53.1 µM); in the data set with Normale Zellen it was 30.1 µg/mL (≈ 48.2 µM). Also, the “subG1 apoptotische Zellteilung Colo205” value in the data set on Colo205 Kolonkarzinom was 3.0 ± 0,14. Further, the “subG1 apoptotische Zellteilung IEC6” value in [5] is 6,55 ± 0,49. In addition, the “subG1 apoptotische Zellteilung Panc1” value in [6] is on record as 57,7 ± 0,07.
